System: Lewis lung cells (lung cell carcinoma)
Test: Effect of 9d in combination with Cisplatin on tumour growth, Lewis lung (Example 13)
Format: in vivo, C57BL/6J mice
Settings: for Inhibition of the in vivo growth of Lewis lung tumour in inbred mice, in words / SURFACE Overall values (Mean) / SURFACE Overall values (Median) / VOLUME Overall values (Mean) / VOLUME Overall values (Median): 9d 250 ng; for Inhibition of the in vivo growth of Lewis lung tumour in inbred mice, in words: Cisplatin 65 μg i.p.; for SURFACE Overall values (Mean) / SURFACE Overall values (Median) / VOLUME Overall values (Mean) / VOLUME Overall values (Median): Cisplatin 65 μg, or both; for Differences in Lewis Lung tumour growth rate vs. placebo, statistical significance p (Mann-Whitney U test): either in surface or volume
Text: This assay was made in order to check the effect on in vivo tumour growth in mice challenged with Lewis lung cells. Their effect will be compared with the combination of chemotherapeutic agents plus 9d and/or placebo. Lewis Lung is a lung cell carcinoma originated in C57BL/6J mice strain, and therefore syngeneic in mice with C57BL/6J genetic background (Rodrigo Garzón M, Tirapu Fernández de la Cuesta […], Noel […] and […]. Use of Gene Therapy in a Subcutaneous Murine Model of Lung Cancer. Arch Bronconeumology. 42: 526-532; 2006). Lewis lung cells (CLS, Eppelheim, Germany) were maintained in vitro by serial passages every 3-4 days. […] Louis, Mo., USA) by seeding 5×10^6 cells onto 75 cm^2 culture flasks. Subcultures were carried out by collecting detached cells after treatment with trypsin-EDTA (Sigma, St. Louis, Mo., USA). Tumour cells, collected from 48 hour cultures, were used as source of Lewis Lung cells for the studies described below. […] Tumours were established by subcutaneous inoculation in the right hind flank. Mice were inoculated with 0.2 mL containing 2×10^5 viable cells. The day of subcutaneous inoculation will be considered Day 0 of the test. Mice were observed daily and the tumour size recorded twice a week. This was carried out by measuring two perpendicular diameters (d1/d2) with a calliper. These measures were used to obtain both tumour surface and volume: […] Results were expressed as single values and/or as the mean±SD or median from each experimental group. A case-control study was performed with treated and control mice in order to determine whether differences between placebo, 9d, Cisplatin or 9d+Cisplatin were present. The data obtained (tumour surface and volume) were tested for Normal distribution within the groups (Kolmogorov Smirnov test p<0.05). […] The U-test of Mann Withney was chosen for being one of the better known non-parametrical tests, anyway, results for this test are equivalent both to those of Wilcoxon's sum of ranges and Kruskal-Wallis two-groups test. We excluded of the study animals that have undetectable or unscored tumour on 31th day after tumour inoculation. Due to the high dispersion of data, outlayers were excluded of the study.

[1] = day 10 after tumour inoculation
[2] = day 13 after tumour inoculation
[3] = day 17 after tumour inoculation
[4] = day 20 after tumour inoculation
[5] = day 24 after tumour inoculation
[6] = day 27 after tumour inoculation
[7] = day 31 after tumour inoculation

| Structure (SMILES) | Inhibition of the in vivo growth of Lewis lung tumour in inbred mice, in words | SURFACE Overall values (Mean) (day 0 after tumour inoculation) | SURFACE Overall values (Median) (day 0 after tumour inoculation) | VOLUME Overall values (Mean) (day 0 after tumour inoculation) | VOLUME Overall values (Median) (day 0 after tumour inoculation) | SURFACE Overall values (Mean) [1] | SURFACE Overall values (Median) [1] | VOLUME Overall values (Mean) [1] | VOLUME Overall values (Median) [1] | SURFACE Overall values (Mean) [2] | SURFACE Overall values (Median) [2] | VOLUME Overall values (Mean) [2] | VOLUME Overall values (Median) [2] | SURFACE Overall values (Mean) [3] | SURFACE Overall values (Median) [3] | VOLUME Overall values (Mean) [3] | VOLUME Overall values (Median) [3] | SURFACE Overall values (Mean) [4] | SURFACE Overall values (Median) [4] | VOLUME Overall values (Mean) [4] | also measured |
| --- | --- | --- | --- | --- | --- | --- | --- | --- | --- | --- | --- | --- | --- | --- | --- | --- | --- | --- | --- | --- | --- |
| Br.N[C@]1(C[n+]2ccccc2)C[C@H](C(=O)O)NC1=O.[Br-] (single isomer, unassigned; isomer 4) [isomer 4, 3S,5R-1-(3-Amino-5-carboxy-2-oxopyrrolidin-3-ylmethyl)pyridinium bromide hidrobromide] | inhibit the in vivo growth | 0 mm^2 | 0 mm^2 | 0 mm^3 | 0 mm^3 | 2 mm^2 | 0 mm^2 | 2.27 mm^3 | 0 mm^3 | 6.47 mm^2 | 4 mm^2 | 12.5 mm^3 | 4 mm^3 | 20.13 mm^2 | 24 mm^2 | 52.73 mm^3 | 48 mm^3 | 34.33 mm^2 | 36 mm^2 | 112.3 mm^3 | VOLUME Overall values (Median) [4]: 108 mm^3; SURFACE Overall values (Mean) [5]: 60.6 mm^2; SURFACE Overall values (Median) [5]: 80 mm^2; VOLUME Overall values (Mean) [5]: 253.77 mm^3; VOLUME Overall values (Median) [5]: 320 mm^3; SURFACE Overall values (Mean) [6]: 104.8 mm^2; SURFACE Overall values (Median) [6]: 88 mm^2; VOLUME Overall values (Mean) [6]: 557.13 mm^3; VOLUME Overall values (Median) [6]: 364.5 mm^3; SURFACE Overall values (Mean) [7]: 141.8 mm^2; SURFACE Overall values (Median) [7]: 130 mm^2; VOLUME Overall values (Mean) [7]: 887.17 mm^3; VOLUME Overall values (Median) [7]: 665.5 mm^3; Differences in Lewis Lung tumour growth rate vs. placebo, statistical significance p (Mann-Whitney U test) (all days scored after the day 13th): < 0.05 |
| N.N.[Cl][Pt][Cl] [Cisplatin, reference compound] | inhibit the in vivo growth | 0 mm^2 | 0 mm^2 | 0 mm^3 | 0 mm^3 | 2.4 mm^2 | 0 mm^2 | 3.27 mm^3 | 0 mm^3 | 6.73 mm^2 | 4 mm^2 | 11.23 mm^3 | 4 mm^3 | 20.73 mm^2 | 25 mm^2 | 49.97 mm^3 | 56 mm^3 | 58.33 mm^2 | 49 mm^2 | 269.1 mm^3 | VOLUME Overall values (Median) [4]: 171.5 mm^3; SURFACE Overall values (Mean) [5]: 106.07 mm^2; SURFACE Overall values (Median) [5]: 90 mm^2; VOLUME Overall values (Mean) [5]: 619.43 mm^3; VOLUME Overall values (Median) [5]: 405 mm^3; SURFACE Overall values (Mean) [6]: 160.07 mm^2; SURFACE Overall values (Median) [6]: 120 mm^2; VOLUME Overall values (Mean) [6]: 1076.9 mm^3; VOLUME Overall values (Median) [6]: 600 mm^3; SURFACE Overall values (Mean) [7]: 204.93 mm^2; SURFACE Overall values (Median) [7]: 169 mm^2; VOLUME Overall values (Mean) [7]: 1530.4 mm^3; VOLUME Overall values (Median) [7]: 1080 mm^3; Differences in Lewis Lung tumour growth rate vs. placebo, statistical significance p (Mann-Whitney U test) (days 10th, 13th and 17 th): < 0.05 |

From US8835466B2, “Synthesis and uses of pyroglutamic acid derivatives” (Prodimed, S.A., priority 2006, dated 2014)
